The values below come from US12319676B2, “Substituted amide compounds useful as farnesoid X receptor modulators” (BRISTOL-MYERS SQUIBB COMPANY, priority 2019, dated 2025).

Molecules are shown by their SMILES.

For the test, the target named is T1, human FXR (Homo sapiens, UniProt Q96RI1).
T1 construct: expressed in transfected cells; host or cells: HEK293 cells stably carrying a 5xGal4 response element-luciferase reporter, transiently transfected with pcDNA3.1-Gal4-FXR
T1 sequence (Q96RI1 262-486 limits assumed): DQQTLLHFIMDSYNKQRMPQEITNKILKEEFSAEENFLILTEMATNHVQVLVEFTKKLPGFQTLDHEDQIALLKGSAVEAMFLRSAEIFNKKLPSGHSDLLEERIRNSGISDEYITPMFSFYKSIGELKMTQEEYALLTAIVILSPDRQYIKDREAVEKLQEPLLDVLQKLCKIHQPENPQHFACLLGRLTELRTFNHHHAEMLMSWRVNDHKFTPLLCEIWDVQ
The experiment in a line: transient human FXR/Gal4-luciferase reporter assay. Type of test: cell-based. The conditions noted are these: Gal4-hFXR fusion construct, luciferase reporter in HEK293 cells; overnight incubation; response as percentage of 8 μM GW-4064 control. Summed up:
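HEK293 cells stably carrying a 5×Gal4-response-element firefly luciferase reporter were transiently transfected with a Gal4 DBD-human FXR LBD fusion, then treated overnight with compounds at 37 °C. Steady-Glo luminescence, minus DMSO background, was expressed as percent of the response to 8 μM GW-4064.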
(In general: A reporter such as luciferase makes a cellular process visible.)
The term EC50 denotes the concentration at which the effect is half-maximal. A low value points to higher potency in that assay. Take `COc1cccc(N(CC23CCC(c4nc(C5CC5)no4)(CC2)CC3)C(=O)C2CC(F)(F)C2)c1` [Example 59, N-((4-(3-cyclopropyl-1,2,4-oxadiazol-5-yl)bicyclo[2.2.2]octan-1-yl)methyl)-3,3-difluoro-N-(3-methoxyphenyl)cyclobutane-1-carboxamide]: the EC50 was determined as 0.673 µM.

`COc1cccc(N(CC23CCC(c4nc(C5CC5)no4)(CC2)CC3)C(=O)C2CCOCC2)c1` [Example 60, N-((4-(3-cyclopropyl-1,2,4-oxadiazol-5-yl)bicyclo[2.2.2]octan-1-yl)methyl)-N-(3-methoxyphenyl)tetrahydro-2H-pyran-4-carboxamide] displayed an EC50 of 0.902 µM. This EC50 and that of the compound before are within 1.5-fold of each other.

Take `COc1cccc(N(CC23CCC(c4nc(C5CC5)no4)(CC2)CC3)C(=O)C2CCS(=O)(=O)CC2)c1` [Example 61, N-((4-(3-cyclopropyl-1,2,4-oxadiazol-5-yl)bicyclo[2.2.2]octan-1-yl)methyl)-N-(3-methoxyphenyl)tetrahydro-2H-thiopyran-4-carboxamide 1,1-dioxide]: the EC50 worked out at 4 µM.

Turning to `N#Cc1cc(F)cc(N(CC23CCC(c4nc(C5CC5)no4)(CC2)CC3)C(=O)C23CC(F)(C2)C3)c1` [Example 62, N-(3-cyano-5-fluorophenyl)-N-((4-(3-cyclopropyl-1,2,4-oxadiazol-5-yl)bicyclo[2.2.2]octan-1-yl)methyl)-3-fluorobicyclo[1.1.1]pentane-1-carboxamide], the EC50 stood at 0.185 µM. This EC50 is about 22-fold lower than that of the compound before.

As to `N#Cc1cc(F)cc(N(CC23CCC(c4nc(C5CC5)no4)(CC2)CC3)C(=O)[C@H]2C[C@](O)(C(F)(F)F)C2)c1` [Example 63, (1S,3S)-N-(3-cyano-5-fluorophenyl)-N-((4-(3-cyclopropyl 1,2,4-oxadiazol-5-yl)bicyclo[2.2.2]octan-1-yl)methyl)-3-hydroxy-3-(trifluoromethyl)cyclobutane-1-carboxamide], a half-maximal response (EC50) required 1.05 µM.

`N#Cc1cc(F)cc(N(CC23CCC(c4nc(C5CC5)no4)(CC2)CC3)C(=O)C2CC(F)(F)C2)c1` [Example 64, N-(3-cyano-5-fluorophenyl)-N-((4-(3-cyclopropyl-1,2,4-oxadiazol-5-yl)bicyclo[2.2.2]octan-1-yl)methyl)-3,3-difluorocyclobutane-1-carboxamide]: the EC50 was 0.528 µM.

Turning to `CS(=O)(=O)Nc1cccc(N(CC23CCC(c4nc(C5CC5)no4)(CC2)CC3)C(=O)C2CC(F)(F)C2)c1` [Example 65, N-((4-(3-cyclopropyl-1,2,4-oxadiazol-5-yl)bicyclo[2.2.2]octan-1-yl)methyl)-3,3-difluoro-N-(3-(methylsulfonamido)phenyl)cyclobutane-1-carboxamide], the EC50 was determined as 1.28 µM.

Regarding `CS(=O)(=O)Nc1cccc(N(CC23CCC(c4nc(C5CC5)no4)(CC2)CC3)C(=O)C23CC(F)(C2)C3)c1` [Example 66, N-((4-(3-cyclopropyl-1,2,4-oxadiazol-5-yl)bicyclo[2.2.2]octan-1-yl)methyl)-3-fluoro-N-(3-(methylsulfonamido)phenyl)bicyclo[1.1.1]pentane-1-carboxamide], the EC50 came out at 4 µM.

In turn, `CS(=O)(=O)Nc1cccc(N(CC23CCC(c4nc(C5CC5)no4)(CC2)CC3)C(=O)[C@H]2C[C@](O)(C(F)(F)F)C2)c1` [Example 67, (1S,3S)-N-((4-(3-cyclopropyl-1,2,4-oxadiazol-5-yl)bicyclo[2.2.2]octan-1-yl)methyl)-3-hydroxy-N-(3-(methylsulfonamido)phenyl)-3-(trifluoromethyl)cyclobutane-1-carboxamide] yielded an EC50 of 4 µM. This lies in the single-digit micromolar range.

Consider `CS(=O)(=O)c1cccc(N(CC23CCC(c4nc(C5CC5)no4)(CC2)CC3)C(=O)C23CC(F)(C2)C3)c1` [Example 68, N-((4-(3-cyclopropyl-1,2,4-oxadiazol-5-yl)bicyclo[2.2.2]octan-1-yl)methyl)-3-fluoro-N-(3-(methylsulfonyl)phenyl)bicyclo[1.1.1]pentane-1-carboxamide], for which the response was half-maximal at 1.49 µM (EC50).
